Experimental data taken from patent US9265845B2, “Imaging methods using engineered integrin binding peptides” (The Board of Trustees of the Leland Stanford Junior …, priority 2006, dated 2016).
Entries after “also recorded” stand apart in the source; their conditions may differ.

Experiments:
[1] = target: α5β1 integrin (Homo sapiens, UniProt P05556+P08648); assay: Competition of 125I-echistatin to detergent-solubilized plate-coated integrin; type: binding; conditions: 0.06 nM 125I echistatin, 5 nM and 50 nM peptide
Experimental: (§1) FIG. 10A through FIG. 10D is a series of histograms showing binding specificities to integrins αvβ3, αvβ5, α5β1, and αiibβ3 for engineered EETI-RGD peptides compared to controls. Error bars represent experiments performed in triplicate. Competition binding of 0.06 nM ^125I echistatin with 5 nM (black bars) and 50 nM (grey bars) unlabeled peptide to plate-coated integrins was measured. […] The engineered peptides have very little binding to αiibβ3 integrin.
(§2) This was done by competition of ^125I-echistatin to detergent-solubilized integrin receptors coated onto microtiter plates (see FIG. 10). […] This is consistent with previous studies which have shown αv integrin receptors can accommodate a wide range of RGD-containing cyclic structures. […] However, since α5β1 integrins are expressed on many tumors and are all involved in mediating angiogenesis and metastasis, a broad spectrum agent that targets all three integrins will be useful for diagnostic and therapeutic applications. With the exception of echistatin, all of the RGD-containing peptides bound weakly to the αiibβ3 receptor, showing the specificity of the present peptides for the αv and α5-containing integrin heterodimers. This characteristic is valuable for molecular imaging and therapeutic applications, since binding to αiibβ3 on platelet cells prevents blood clotting and would lead to non-specific in vivo effects.

[2] = target: αvβ3 integrin (Homo sapiens, UniProt P05106+P06756); assay: as above; type: binding; conditions: 0.06 nM 125I echistatin, 5 nM and 50 nM peptide
Experimental: as §1, §2

[3] = target: αvβ5 integrin (Homo sapiens, UniProt P06756+P18084); assay: as above; type: binding; conditions: 0.06 nM 125I echistatin, 5 nM and 50 nM peptide
Experimental: as §1, §2

[4] = tested on: U87MG glioblastoma cells; assay: Blocking of U87MG cell adhesion to fibronectin-coated plates; type: cell-based
Description: (§3) The present engineered peptides may be used in a variety of ways. If the peptides are attached to a surface, they may be used to attract/recruit cells to grow on the surface. For example, the present peptides may be applied to prosthetic devices, implants, bone grafts, and the like to promote tissue growth and healing at the site. They may be attached to culture dishes and promote attachment and differentiation of cells in culture. In addition, the present engineered peptides may be used to modulate cell binding to selected integrins such as α5β1, αvβ3 and αvβ5, particularly αvβ3, by adding the peptides to a cell culture to prevent cells expressing these integrins from adhering to a substrate. […] Also, the present 2.5F, 2.5D and 1.5B peptides were tested for blocking adhesion of U87MG glioblastoma cells to fibronectin-coated plates.
(§4) In another experiment, the ability of engineered knottin peptides to block U87MG cell adhesion to vitronectin- and fibronectin-coated microtiter plates. Vitronectin is a natural ligand for several integrins, including αvβ3 and αvβ5. The RGD-containing peptides were all able to inhibit U87MG cell adhesion to vitronectin-coated plates in a dose-responsive manner. […] Fibronectin also binds to several integrins, (including αvβ3 and α5β1), but the α5β1 integrin receptor is generally selective for fibronectin.

[5] = tested on: U87MG glioblastoma cells; assay: Blocking of U87MG cell adhesion to vitronectin-coated plates; type: cell-based; conditions: vitronectin-coated plates
Description: as §3, §4
Whether the engineered AgRP peptides could block vitronectin-mediated adhesion to the U87MG cells was tested using an analogous assay. […] The AgRP peptides may not effectively block U87MG adhesion compared to the K562-αvβ3 cells because the αvβ5 integrins co-expressed on the surface of the U87MG cells could also contribute to vitronectin-mediated adhesion and compensate for the loss of αvβ3 integrin function.

[6] = tested on: U87MG tumor; assay: MicroPET imaging and biodistribution of radiolabeled peptides in U87MG tumor-bearing mice; type: in vivo, mouse
Experimental: MicroPET imaging of tumor-bearing mice is performed on a microPET R4 rodent model scanner (Concorde Microsystems Inc, Knoxyille, Tenn.). U87MG tumor bearing mice are injected with PET imaging agent via the tail vein. At various times post injection, the mice are anesthetized with 2% isoflurane, and 10 min static scans are obtained. Images are reconstructed by a two-dimensional ordered expectation maximum subset algorithm as previously described. Regions of interest (ROI) are drawn over the tumor on decay corrected whole body images and ROI derived % injected dose per gram of tissue is determined. Statistical analysis is performed using the student's t-test for unpaired data. A 95% confidence level is used to determine statistical significance.
Female athymic mice bearing U87MG tumors were injected with 80-150 μCi of ^64Cu-DOTA-knottin 2.5D or 7-9 μCi of [^18F]-FB-E[knottin 2.5D]. Static images were taken at various timepoints post injection using a microPET R4 rodent model scanner (Concorde Microsystems Inc, Knoxyille, Tenn.). […] Uptake was also observed in the kidney as both probes cleared through the bladder.
Mice are sacrificed by exanguinations at various time points postinjection. Blood, tumor and the major organs and tissues are collected, wet-weighed and measured in a γ-counter. The % injected dose per gram is determined for each sample. For each mouse, radioactivity of the tissue samples is calibrated against a known aliquot of the injectate. Values are reported as the mean±standard deviation.
The following Table 10 quantifies the ^64Cu-DOTA knottin uptake by direct tissue sampling of the mice up to 24 hours post injection and is reported in % ID (percent injected dose)/gram. Similar results were obtained with [^18F]-FB-E[knottin 2.5D].
A U87MG glioblastoma xenograft mouse model was used. U87MG cells were maintained at 37° C. in a humidified atmosphere containing 5% CO2 in Dulbecco's modified eagle medium, 10% heat-inactivated fetal bovine serum, and penicillin-streptomycin (all from Invitrogen). Animal procedures were carried out according to a protocol by Stanford University Administrative Panels on Laboratory Animal Care. Female athymic nude mice (nu/nu), obtained at 4-6 weeks of age (Charles River Laboratories, Inc.), were injected subcutaneously in the right or left shoulder with 2×10^7 U87MG glioblastoma cells suspended in 100 μL of PBS. Mice were used for in vivo imaging studies when their tumors reached approximately 8 to 10 millimeters in diameter.
U87MG tumor-bearing mice (n=3 or more for each probe) were injected with ˜100 μCi of ^64Cu-DOTA-conjugated peptides via the tail vein and imaged with a microPET R4 rodent model scanner (Siemens Medical) using 3 or 5 min static scans. […] Images were reconstructed by a two dimensional ordered expectation maximum subset algorithm and calibrated as previously described (Wu, Y, Zhang, X, Xiong, Z, et al. microPET imaging of glioma integrin {alpha}v{beta}3 expression using (64)Cu-labeled tetrameric RGD peptide. J Nucl Med 2005; 46:1707-18). ROIs were drawn over the tumor on decay-corrected whole body images using ASIPro VM software (Siemens Medical). The mean counts per pixel per minute were obtained from the ROI and converted to counts per milliliter per minute with a calibration constant. ROIs were converted to counts/g/min, and % ID/g values were determined assuming a tissue density of 1 g/mL. No attenuation correction was performed.

| SMILES | binding to α5β1 integrin, in words [1] | binding to αvβ3 integrin, in words [2] | binding to αvβ5 integrin, in words [3] | blocking of U87MG cell adhesion to fibronectin, in words [4] | blocking of U87MG cell adhesion to vitronectin, in words [5] | liver uptake, in words ([6]; 64Cu-DOTA-labeled peptides, compared to 64Cu-DOTA-c(RGDyK)) | tumor/blood ratios, in words ([6]; PET studies, 4 h post injection, compared to 2.5D) | PET tumor targeting / imaging signal, in words ([6]; radiolabeled peptides, U87MG tumor-bearing mice) |
| --- | --- | --- | --- | --- | --- | --- | --- | --- |
| CC[C@H](C)[C@@H]1NC(=O)[C@H]([C@@H](C)O)NC(=O)[C@@H](NC(=O)CN)CSSC[C@@H]2NC(=O)CNC(=O)[C@H](C)NC(=O)[C@H](CC(C)C)NC(=O)[C@@H]3CSSC[C@@H](C(=O)NCC(=O)O)NC(=O)[C@H](Cc4ccccc4)NC(=O)CNC(=O)[C@H](CC(N)=O)NC(=O)[C@@H]4CCCN4C(=O)CNC(=O)[C@H](CSSC[C@H](NC(=O)[C@H](CCC(=O)O)NC(=O)[C@H](CO)NC(=O)[C@@H]4CCCN4C(=O)[C@H](C)NC(=O)[C@H](Cc4c[nH]c5ccccc45)NC(=O)[C@H](CC(=O)O)NC(=O)CNC(=O)[C@H](CCCNC(=N)N)NC(=O)CNC1=O)C(=O)N[C@@H](CO)C(=O)N[C@@H](CCC(N)=O)C(=O)N[C@@H](CC(=O)O)C(=O)N[C@@H](CO)C(=O)N[C@@H](CC(=O)O)C(=O)N3)NC(=O)[C@H](C(C)C)NC2=O [1.5B] | only minimal binding | strongest levels of binding | strongest levels of binding | only echistatin and polypeptide 2.5F blocked adhesion |  |  |  |  |
| CC(C)C[C@@H]1NC(=O)[C@@H]2CSSC[C@@H](C(=O)NCC(=O)O)NC(=O)[C@H](Cc3ccccc3)NC(=O)CNC(=O)[C@H](CC(N)=O)NC(=O)[C@@H]3CCCN3C(=O)CNC(=O)[C@@H]3CSSC[C@H](NC(=O)[C@H]([C@@H](C)O)NC(=O)[C@H](CC(C)C)NC(=O)[C@@H]4CCCN4C(=O)[C@@H]4CCCN4C(=O)[C@H](CC(N)=O)NC(=O)[C@H](CC(=O)O)NC(=O)CNC(=O)[C@H](CCCNC(=N)N)NC(=O)[C@@H]4CCCN4C(=O)[C@H](CCCNC(=N)N)NC(=O)[C@@H]4CCCN4C(=O)[C@@H](NC(=O)CN)CSSC[C@H](NC(=O)CNC(=O)[C@H](C)NC1=O)C(=O)N[C@@H](C(C)C)C(=O)N3)C(=O)N[C@@H](CO)C(=O)N[C@@H](CCC(N)=O)C(=O)N[C@@H](CC(=O)O)C(=O)N[C@@H](CO)C(=O)N[C@@H](CC(=O)O)C(=O)N2 [2.5F] | binds with strong affinity | strongest levels of binding | strongest levels of binding | blocked adhesion; also recorded: able to block | blocked adhesion better than controls | lower liver uptake | much higher tumor/blood ratios | slower tumor washout compared to 2.5D |
